Measurements reported in patent US7939589B2, “Polyhydroxy-diamines as low odor, low VOC multi-functional additives for paints and coatings” (Angus Chemical Company, priority 2009, dated 2011).

Tests used:
[1] = Volatile organic content (VOC) of the neat amine, modified EPA Method 24; type: physicochemical; details: for VOC / Volatility by the modified EPA Test Method 24: neat amine; for VOC: 1 h at 105-110° C., percent weight loss
Procedure: Volatile Organic Content (VOC). VOC is measured following EPA Method 24. The amines are weighed in a pan and kept in an oven for 1 h at 105-110° C. The percent weight loss is reported as the VOC, corrected for the water content in the sample which can be measured by Karl Fisher Titration.

[2] = pKa of the neat neutralizer by titration with hydrochloric acid; type: physicochemical; details: neat amine; for pKa: titration; for pK1: first pKa by titration; for pK2: second pKa by titration
Procedure: pKa. pKa is measured by titration with a hydrochloric acid titrant solution, using an automated titrator that monitors pH with a combination electrode. The titrator plots pH vs. volume of titrant added, and first determines the titration endpoint(s) of each amine as the volume of titrant added at the inflection point(s) of the curve. The titrator reports the amine pKa value as the pH value at which one-half of the endpoint titrant volume has been delivered, or in the case of multiple endpoints, multiple pKa values are determined using the midpoints between titration endpoints. The inventive amines tested in this example each have two pKa values, due to the two different amine groups in each compound's respective molecular structure.

| VOC contribution [1] | pKa [2] | VOC [1] [%] | pK1 [2] | pK1 ([2]; listed as TA-AcyHM) | pK2 [2] | pK2 ([2]; listed as TA-AcyHM) | Volatility by the modified EPA Test Method 24 [1] [%] | Structure (SMILES) |
| --- | --- | --- | --- | --- | --- | --- | --- | --- |
| 3.9% |  |  |  |  |  |  |  | CC(C)(N)CNC(CO)(CO)CO [2-(2-amino-2-methylpropylamino)-2-(hydroxymethyl)propane-1,3-diol] |
|  | 8.8 | 19 |  |  |  |  |  | CCC(N)(CO)CO [AEPD, 2-Amino-2-ethyl-1,3-propane-diol, reference compound] |
|  | 9 | 21 |  |  |  |  |  | CCCCN(CCO)CCO [NBDA, N-Butyl-diethanolamine, reference compound] |
| essentially zero VOC contribution |  | 3.8 | 9.7 | pK1 9.7 | 4.5 | pK2 4.5 | 3.8 | NC1(CNC(CO)(CO)CO)CCCCC1 [TA-ACyHM, 2-((1-aminocyclohexyl)methylamino)-2-(hydroxymethyl)propane-1,3-diol] |
|  |  | 3.9 |  |  |  |  | 3.9 | CC(C)(N)CNC(CO)(CO)CO [TA-AMP, 2-(2-Amino-2-methylpropylamino)-2-(hydroxymethyl)propane-1,3-diol] |

| Structure (SMILES) | VOC contribution [1] | pKa [2] | VOC [1] [%] | pK1 [2] | pK1 ([2]; listed as TA-AcyHM) | pK2 [2] | pK2 ([2]; listed as TA-AcyHM) | Volatility by the modified EPA Test Method 24 [1] [%] |
| --- | --- | --- | --- | --- | --- | --- | --- | --- |
| CC(C)(N)CO [AMP, 2-Amino-2-methyl-1-propanol, reference compound] | 100% | 9.7 | 100 |  |  |  |  |  |
